From patent publication US9179678B2, “Substituted [1,2,4]triazoles and substituted tetrazoles as herbicides” (SYNGENTA LIMITED, priority 2012, dated 2015)

Columns and labels:
Assay type in all cases: in vivo
[1] = test system: Alopecurus myosuroides (ALOMY); assay: Post-emergence glasshouse herbicide test; conditions: POST Application, 1000 g/h, after 13 days
Method: (§1) Seeds of a variety of test species are sown in standard soil in pots (Alopecurus myosuroides (ALOMY), Setaria faberi (SETFA), Echinochloa crus-galli (ECHCG), Solanum nigrum (SOLNI), Amaranthus retoflexus (AMARE), Ipomoea hederacea (IPOHE)). After cultivation for one day (pre-emergence) or after 8 days cultivation (post-emergence) under controlled conditions in a glasshouse (at 24/16° C., day/night; 14 hours light; 65% humidity), the plants are sprayed with an aqueous spray solution derived from the formulation of the technical active ingredient in acetone/water (50:50) solution containing 0.5% Tween 20 (polyoxyethelyene sorbitan monolaurate, CAS RN 9005-64-5). Compounds ae applied at 1000 g/h. The test plants are then grown in a glasshouse under controlled conditions in a glasshouse (at 24/16° C., day/night; 14 hours light; 65% humidity) and watered twice daily. After 13 days for pre and post-emergence, the test is evaluated for the percentage damage caused to the plant. The biological activities are shown in the following table on a five point scale (5=80-100%; 4=60-79%; 3=40-59%; 2=20-39%; 1=0-19%).

[2] = test system: Amaranthus retoflexus (AMARE); assay: Post-emergence glasshouse herbicide test; conditions: POST Application, 1000 g/h, after 13 days
Method: as §1

[3] = test system: Echinochloa crus-galli (ECHCG); assay: Post-emergence glasshouse herbicide test; conditions: POST Application, 1000 g/h, after 13 days
Method: as §1

[4] = test system: Ipomoea hederacea (IPOHE); assay: Post-emergence glasshouse herbicide test; conditions: POST Application, 1000 g/h, after 13 days
Method: as §1

[5] = test system: Solanum nigrum (SOLNI); assay: Post-emergence glasshouse herbicide test; conditions: POST Application, 1000 g/h, after 13 days
Method: as §1

[6] = test system: Setaria faberi (SETFA); assay: Post-emergence glasshouse herbicide test; conditions: POST Application, 1000 g/h, after 13 days
Method: as §1, with “Compounds ae applied at 1000 g/h.” left out

[7] = test system: Alopecurus myosuroides (ALOMY); assay: Pre-emergence glasshouse herbicide test; conditions: PRE Application, 1000 g/h, after 13 days
Method: as §1

[8] = test system: Amaranthus retoflexus (AMARE); assay: Pre-emergence glasshouse herbicide test; conditions: PRE Application, 1000 g/h, after 13 days
Method: as §1

[9] = test system: Echinochloa crus-galli (ECHCG); assay: Pre-emergence glasshouse herbicide test; conditions: PRE Application, 1000 g/h, after 13 days
Method: as §1

[10] = test system: Ipomoea hederacea (IPOHE); assay: Pre-emergence glasshouse herbicide test; conditions: PRE Application, 1000 g/h, after 13 days
Method: as §1

[11] = test system: Setaria faberi (SETFA); assay: Pre-emergence glasshouse herbicide test; conditions: PRE Application, 1000 g/h, after 13 days
Method: as §1

[12] = test system: Solanum nigrum (SOLNI); assay: Pre-emergence glasshouse herbicide test; conditions: PRE Application, 1000 g/h, after 13 days
Method: as §1

| SMILES | percentage damage caused to the plant, ALOMY [1] | percentage damage caused to the plant, AMARE [2] | percentage damage caused to the plant, ECHCG [3] | percentage damage caused to the plant, IPOHE [4] | percentage damage caused to the plant, SOLNI [5] | percentage damage caused to the plant, SETFA [6] | percentage damage caused to the plant, ALOMY [7] | percentage damage caused to the plant, AMARE [8] | percentage damage caused to the plant, ECHCG [9] | percentage damage caused to the plant, IPOHE [10] | percentage damage caused to the plant, SETFA [11] | percentage damage caused to the plant, SOLNI [12] |
| --- | --- | --- | --- | --- | --- | --- | --- | --- | --- | --- | --- | --- |
| Cn1nnnc1NC(=O)c1nc2ccccc2n(-c2ccc(C(F)(F)F)cc2)c1=O [Compound 5.019] | 3 (3=40-59%) | 5 (5=80-100%) | 5 (5=80-100%) | 5 (5=80-100%) | 5 (5=80-100%) | 5 (5=80-100%) | 4 (4=60-79%) | 5 (5=80-100%) | 5 (5=80-100%) | 5 (5=80-100%) | 5 (5=80-100%) | 5 (5=80-100%) |
| CSc1ccc(-n2c(=O)c(C(=O)Nc3nnnn3C)nc3ccccc32)cc1 [Compound 5.020] | 5 (5=80-100%) | 5 (5=80-100%) | 5 (5=80-100%) | 5 (5=80-100%) | 5 (5=80-100%) | 2 (2=20-39%) | 1 (1=0-19%) | 5 (5=80-100%) | 3 (3=40-59%) | 3 (3=40-59%) | 1 (1=0-19%) | 5 (5=80-100%) |
| Cn1nnnc1NC(=O)c1nc2ccccc2n(-c2cccc(C#N)c2)c1=O [Compound 5.021] | 4 (4=60-79%) | 5 (5=80-100%) | 2 (2=20-39%) | 5 (5=80-100%) | 5 (5=80-100%) | 5 (5=80-100%) | 5 (5=80-100%) | 5 (5=80-100%) | 5 (5=80-100%) | 5 (5=80-100%) | 5 (5=80-100%) | 5 (5=80-100%) |
| Cn1nnnc1NC(=O)c1nc2ccccc2n(-c2ccc([N+](=O)[O-])cc2)c1=O [Compound 5.022] | 2 (2=20-39%) | 5 (5=80-100%) | 4 (4=60-79%) | 5 (5=80-100%) | 5 (5=80-100%) | 4 (4=60-79%) | 3 (3=40-59%) | 5 (5=80-100%) | 5 (5=80-100%) | 4 (4=60-79%) | 5 (5=80-100%) | 5 (5=80-100%) |
| Cn1nnnc1NC(=O)c1nc2ccccc2n(-c2cccc(Br)c2)c1=O [Compound 5.024] | 5 (5=80-100%) | 5 (5=80-100%) | 5 (5=80-100%) | 4 (4=60-79%) | 5 (5=80-100%) | 5 (5=80-100%) | 5 (5=80-100%) | 5 (5=80-100%) | 5 (5=80-100%) | 5 (5=80-100%) | 5 (5=80-100%) | 5 (5=80-100%) |
